In PubChem BioAssay AID296 (DTP/NCI, 2004):
Values joined by “and” are separate entries in the source; they are usually repeats but may differ in a detail not shown here. Identical values can stand only once. Records with an inconclusive call do not appear.

Tested on: MX-1 breast xenograft, nude mice, tumor weight T/C
Test: NCI In Vivo Anticancer Drug Screen. Data for tumor model Human Mammary Carcinoma MX-1 Xenograft (intrarenal inoculation) in NU/NU Swiss (nude) mice
Conditions: endpoint: mean tumor weight change, higher = larger tumour
How it was run: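 Antitumour effect measured in vivo against vehicle controls, expressed as T/C.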

[1] = dose: 300.0 mg/kg/injection, schedule: Q04DX003 (sc), vehicle: saline with Tween-80
[2] = dose: 600.0 mg/kg/injection, schedule: Q04DX003 (sc), vehicle: saline with Tween-80
[3] = dose: 100.0 mg/kg/injection, schedule: Q01DX010 (sc), vehicle: water
[4] = dose: 200.0 mg/kg/injection, schedule: Q01DX010 (sc), vehicle: water
[5] = dose: 100.0 mg/kg/injection, schedule: Q04DX003 (sc), vehicle: suspension in saline
[6] = dose: 100.0 mg/kg/injection, schedule: Q04DX003 (sc), vehicle: saline with Tween-80
[7] = dose: 200.0 mg/kg/injection, schedule: Q04DX003 (sc), vehicle: saline with Tween-80
[8] = dose: 400.0 mg/kg/injection, schedule: Q04DX003 (sc), vehicle: saline with Tween-80

## COc1cccc2c1C(=O)c1c(O)c3c(c(O)c1C2=O)C[C@@](O)(C(C)=O)C[C@@H]3OC1CC(N(C)C)C(O)C(C)O1 (stereo partly specified)
dose: 2.0 mg/kg/injection, schedule: Q01DX010 (sc), vehicle: water
  T/C: 293 % of control
dose: 4.0 mg/kg/injection, schedule: Q01DX010 (sc), vehicle: water
  T/C: 120 % of control

## COc1ccc(C(N)=O)cc1N=NN(C)C
dose: 50.0 mg/kg/injection, schedule: Q01DX010 (sc), vehicle: Klucel (hydroxypropylcellulose) (HPC)
  T/C: 169 % of control

## O=C1C2(Cl)C3(Cl)C4(Cl)C(Cl)(Cl)C5(Cl)[C@]3(Cl)C1(Cl)[C@]5(Cl)C24Cl (stereo partly specified)
dose: 37.5 mg/kg/injection, schedule: Q04DX003 (sc), vehicle: Klucel (hydroxypropylcellulose) (HPC)
  T/C: 120 % of control
dose: 75.0 mg/kg/injection, schedule: Q04DX003 (sc), vehicle: Klucel (hydroxypropylcellulose) (HPC)
  T/C: 121 % of control

## CC1=C[S+](c2ccccc2)c2cccc3cc4ccccc4c1c23 (stereo unspecified)
dose: 8.0 mg/kg/injection, schedule: Q04DX003 (sc), vehicle: saline with Tween-80
  T/C: 69 % of control
dose: 16.0 mg/kg/injection, schedule: Q04DX003 (sc), vehicle: saline with Tween-80
  T/C: 75 % of control

## NC(=O)SCC(N)C(=O)O (stereo unspecified)
dose: 225.0 mg/kg/injection, schedule: Q04DX003 (sc), vehicle: suspension in saline
  T/C: 73 % of control
dose: 400.0 mg/kg/injection, schedule: Q04DX003 (sc), vehicle: suspension in saline
  T/C: 62 % of control
dose: 450.0 mg/kg/injection, schedule: Q04DX003 (sc), vehicle: suspension in saline
  T/C: 49 % of control
dose: 600.0 mg/kg/injection, schedule: Q04DX003 (sc), vehicle: suspension in saline
  T/C: 57 % of control

## CC/C(=C(/CC)c1ccc(O)cc1)c1ccc(O)cc1
dose: 75.0 mg/kg/injection, schedule: Q04DX003 (sc), vehicle: saline with Tween-80
  T/C: 66 % of control
dose: 150.0 mg/kg/injection, schedule: Q04DX003 (sc), vehicle: saline with Tween-80
  T/C: 47 % of control
[1]
  T/C: 48 % of control
[2]
  T/C: 55 % of control

## CCCCCCCCCCCC(=O)NC1CC(O[C@H]2C[C@](O)(C(=O)CO)Cc3c(O)c4c(c(O)c32)C(=O)c2c(OC)cccc2C4=O)OC(C)C1O (stereo partly specified)
[3]
  T/C: 59 % of control
[4]
  T/C: 97 % of control
dose: 400.0 mg/kg/injection, schedule: Q01DX010 (sc), vehicle: water
  T/C: 53 % of control

## c1ccc2c(c1)[As]=c1ccccc1=[As]2 (stereo unspecified)
dose: 150.0 mg/kg/injection, schedule: Q04DX003 (sc), vehicle: saline
  T/C: 116 % of control
dose: 300.0 mg/kg/injection, schedule: Q04DX003 (sc), vehicle: saline
  T/C: 118 % of control
dose: 600.0 mg/kg/injection, schedule: Q04DX003 (sc), vehicle: saline
  T/C: 99 % of control

## CC1(C)OCC(CO)(Nc2nc(N3CC3)nc(N3CC3)n2)CO1
dose: 2.5 mg/kg/injection, schedule: Q01DX010 (sc), vehicle: saline
  T/C: -75 % of control

## C=C1C(=O)OCC1C(=O)O (stereo unspecified)
dose: 50.0 mg/kg/injection, schedule: Q04DX003 (sc), vehicle: suspension in saline
  T/C: 74 % of control
[5]
  T/C: 94 % of control
dose: 200.0 mg/kg/injection, schedule: Q04DX003 (sc), vehicle: suspension in saline
  T/C: 50 % of control

## ClCC[N+]12CC[N+](CCCl)(CC1)C2
dose: 3.12 mg/kg/injection, schedule: Q01DX010 (sc), vehicle: saline with Tween-80
  T/C: 106 % of control
dose: 6.25 mg/kg/injection, schedule: Q01DX010 (sc), vehicle: saline with Tween-80
  T/C: 69 % of control
dose: 12.5 mg/kg/injection, schedule: Q01DX010 (sc), vehicle: saline with Tween-80
  T/C: 108 % of control
dose: 25.0 mg/kg/injection, schedule: Q01DX010 (sc), vehicle: saline with Tween-80
  T/C: 96 % of control
dose: 50.0 mg/kg/injection, schedule: Q01DX010 (sc), vehicle: water
  T/C: 39 % of control and 57 % of control
dose: 75.0 mg/kg/injection, schedule: Q04DX003 (sc), vehicle: water
  T/C: 51 % of control
[3]
  T/C: 7 % of control and 13 % of control
dose: 135.0 mg/kg/injection, schedule: Q04DX003 (sc), vehicle: water
  T/C: 45 % of control and 63 % of control
dose: 150.0 mg/kg/injection, schedule: Q01DX010 (sc), vehicle: water
  T/C: 15 % of control
dose: 150.0 mg/kg/injection, schedule: Q04DX003 (sc), vehicle: water
  T/C: 32 % of control
[4]
  T/C: -36 % of control and -32 % of control
dose: 400.0 mg/kg/injection, schedule: Q01DX010 (sc), vehicle: saline with Tween-80
  T/C: 5 % of control
dose: 450.0 mg/kg/injection, schedule: Q04DX003 (sc), vehicle: water
  T/C: 12 % of control and 27 % of control

## CC1OC1C(=O)C1(O)C(C)C(O)C23OC2(C(O)c2c(O)cccc2C3=O)C1O (stereo unspecified)
dose: 12.0 mg/kg/injection, schedule: Q04DX003 (sc), vehicle: Klucel (hydroxypropylcellulose) (HPC)
  T/C: 102 % of control
dose: 24.0 mg/kg/injection, schedule: Q04DX003 (sc), vehicle: Klucel (hydroxypropylcellulose) (HPC)
  T/C: 83 % of control
dose: 48.0 mg/kg/injection, schedule: Q04DX003 (sc), vehicle: Klucel (hydroxypropylcellulose) (HPC)
  T/C: 83 % of control

## C1OCN2CSCC12 (stereo unspecified)
[6]
  T/C: 94 % of control
[7]
  T/C: 158 % of control
[8]
  T/C: 80 % of control

## Cc1c2ccccc2cc2cccc[n+]12
dose: 7.5 mg/kg/injection, schedule: Q04DX003 (sc), vehicle: saline
  T/C: 74 % of control
dose: 15.0 mg/kg/injection, schedule: Q04DX003 (sc), vehicle: saline
  T/C: 88 % of control
dose: 30.0 mg/kg/injection, schedule: Q04DX003 (sc), vehicle: saline
  T/C: 67 % of control

## CC(C)=CCNc1ncnc2c1ncn2C1OC(CO)C(O)C1O (stereo unspecified)
[5]
  T/C: 122 % of control

## O=C1CN(CO)C(=O)N1CO
dose: 100.0 mg/kg/injection, schedule: Q04DX003 (ip), vehicle: saline
  T/C: 93 % of control
dose: 200.0 mg/kg/injection, schedule: Q04DX003 (ip), vehicle: saline
  T/C: 67 % of control
dose: 400.0 mg/kg/injection, schedule: Q04DX003 (ip), vehicle: saline
  T/C: 28 % of control

## O=c1cc(CCl)[nH]nc1CCl
dose: 50.0 mg/kg/injection, schedule: Q01DX010 (sc), vehicle: saline with Tween-80
  T/C: 77 % of control
dose: 100.0 mg/kg/injection, schedule: Q01DX010 (sc), vehicle: saline with Tween-80
  T/C: 42 % of control

## BrC[P+](CBr)(CBr)CBr
[6]
  T/C: 105 % of control
[7]
  T/C: 117 % of control
[8]
  T/C: 111 % of control

## O=C(O)c1c2c(nc3ccccc13)Cc1ccccc1-2
dose: 25.0 mg/kg/injection, schedule: Q01DX010 (sc), vehicle: water
  T/C: 108 % of control
[4]
  T/C: 46 % of control

## O=c1cc(-c2ccccc2)[nH]c2c1CCCC2
[1]
  T/C: 54 % of control
[2]
  T/C: 53 % of control
dose: 1200.0 mg/kg/injection, schedule: Q04DX003 (sc), vehicle: saline with Tween-80
  T/C: 65 % of control
dose: 2400.0 mg/kg/injection, schedule: Q04DX003 (sc), vehicle: saline with Tween-80
  T/C: 96 % of control

## Nc1nc([Se])c2ncn(C3OC(CO)C(O)C3O)c2n1 (stereo unspecified)
dose: 2.0 mg/kg/injection, schedule: Q01DX010 (sc), vehicle: saline
  T/C: 85 % of control and 101 % of control
dose: 6.66 mg/kg/injection, schedule: Q04DX003 (ip), vehicle: saline
  T/C: 76 % of control
dose: 6.66 mg/kg/injection, schedule: Q04DX003 (sc), vehicle: saline
  T/C: 72 % of control
dose: 8.0 mg/kg/injection, schedule: Q01DX010 (ip), vehicle: saline
  T/C: 45 % of control
dose: 13.33 mg/kg/injection, schedule: Q04DX003 (ip), vehicle: saline
  T/C: 46 % of control
dose: 26.65 mg/kg/injection, schedule: Q04DX003 (ip), vehicle: saline
  T/C: 74 % of control
dose: 53.3 mg/kg/injection, schedule: Q04DX003 (ip), vehicle: saline
  T/C: 63 % of control
dose: 53.33 mg/kg/injection, schedule: Q04DX003 (sc), vehicle: saline
  T/C: 89 % of control

## CSc1nc(=O)[nH]nc1SCc1ccccc1
dose: 200.0 mg/kg/injection, schedule: Q04DX003 (sc), vehicle: Klucel (hydroxypropylcellulose) (HPC)
  T/C: 100 % of control
dose: 400.0 mg/kg/injection, schedule: Q04DX003 (sc), vehicle: Klucel (hydroxypropylcellulose) (HPC)
  T/C: 87 % of control
dose: 800.0 mg/kg/injection, schedule: Q04DX003 (sc), vehicle: Klucel (hydroxypropylcellulose) (HPC)
  T/C: 69 % of control
dose: 1600.0 mg/kg/injection, schedule: Q04DX003 (sc), vehicle: Klucel (hydroxypropylcellulose) (HPC)
  T/C: 60 % of control

## Cn1/c2cc/c1=C(\c1ccc(S(=O)(=O)O)cc1)c1ccc([n-]1)/C(c1ccc(S(=O)(=O)O)cc1)=c1/cc/c([nH]1)=C(\c1ccc(S(=O)(=O)O)cc1)c1ccc([n-]1)/C=2c1ccc(S(=O)(=O)O)cc1.O.O=S(=O)(O)C(F)(F)F.[Cu+2]
dose: 150.0 mg/kg/injection, schedule: Q04DX003 (sc), vehicle: Klucel (hydroxypropylcellulose) (HPC)
  T/C: 54 % of control
dose: 600.0 mg/kg/injection, schedule: Q04DX003 (sc), vehicle: Klucel (hydroxypropylcellulose) (HPC)
  T/C: 94 % of control
